Measurements as given in publication PMC8405607 (British Journal of Cancer, 2021).
Like-named read-outs stand apart in the source and are kept apart here.

Experiments:
[1] = human, in vivo
Experimental: The protocol allowed switching to one or more of three alternative regimens; of these, the intermittent dosing regimen of 3qw for 2 weeks on/1 week off was investigated.
Safety was assessed according to the National Cancer Institute Common Terminology Criteria for Adverse Events (NCI-CTCAE) v4.03. […] Fresh biopsies were collected on day 8 of cycle 1 along with a matching PK sample (6 h ± 2 h post-dose).

[2] = phase I clinical plasma pharmacokinetics (noncompartmental); Reg 1: 3qw continuous; Reg 3: 3qw 2 weeks on/1 week off; assay type: in vivo, human; conditions: for AUC(0-t) / Cmax: human, plasma, oral; for AUC(0-t): read-out: AUClast, Mean (SD); for Cmax: read-out: Cmax, Mean (SD)
Experimental: Antitumor efficacy was assessed using computerised tomography (CT)/magnetic resonance imaging assessment at baseline and every 8 weeks until disease progression or the initiation of subsequent antineoplastic therapy or death, whichever occurred first. In addition, the criteria for determining confirmed partial response (PR) or complete response (CR) were required to be present for at least 4 weeks. Demographic and other baseline data and PK/PD parameters were summarised using descriptive statistics.[11] PK parameters were estimated using noncompartmental methods (Phoenix®, Pharsight, Mountain View, California, USA).

COc1cc2c(cc1OC(C)C)[C@H](c1ccc(Cl)cc1)N(c1ccc(N(C)C[C@H]3CC[C@H](N4CCN(C)C(=O)C4)CC3)cc1)C(=O)C2 [CGM097]
ALT increased all grades, suspected related to study drug [1]: 5 (10) n % | AST increased all grades, suspected related to study drug [1]: 5 (10) n % | Abdominal pain upper all grades, suspected related to study drug [1]: 6 (12) n % | Anaemia all grades, suspected related to study drug [1]: 8 (16) n % | Anaemia grade 3 or 4, suspected related to study drug [1]: 4 (7.8) n % | Asthenia all grades, suspected related to study drug [1]: 7 (14) n % | Blood CPK increased all grades, suspected related to study drug [1]: 6 (12) n % | Decreased appetite all grades, suspected related to study drug [1]: 9 (18) n % | Diarrhoea all grades, suspected related to study drug [1]: 11 (22) n % | Dizziness all grades, suspected related to study drug [1]: 5 (10) n % | Dysgeusia all grades, suspected related to study drug [1]: 7 (14) n % | Granulocytopenia grade 3 or 4, suspected related to study drug [1]: 1 (2.0) n % | Hyperlipasaemia grade 3 or 4, suspected related to study drug [1]: 1 (2.0) n % | Hyperlipidaemia grade 3 or 4, suspected related to study drug [1]: 1 (2.0) n % | Hypoalbuminemia all grades, suspected related to study drug [1]: 5 (10) n % | Leukopenia grade 3 or 4, suspected related to study drug [1]: 4 (7.8) n % | Lipase increased all grades, suspected related to study drug [1]: 6 (12) n % | Lipase increased grade 3 or 4, suspected related to study drug [1]: 5 (9.8) n % | Lymphocyte count decreased grade 3 or 4, suspected related to study drug [1]: 1 (2.0) n % | Lymphopenia all grades, suspected related to study drug [1]: 10 (20) n % | Nausea grade 3 or 4, suspected related to study drug [1]: 2 (3.9) n % | Neutropenia all grades, suspected related to study drug [1]: 11 (22) n % | Neutrophil count decreased grade 3 or 4, suspected related to study drug [1]: 2 (3.9) n % | Proteinuria grade 3 or 4, suspected related to study drug [1]: 1 (2.0) n % | White blood cell count decreased grade 3 or 4, suspected related to study drug [1]: 4 (7.8) n % | anaemia, any grade AE [1]: 18 n | fatigue, any grade AE [1]: 18 n | haematologic AESIs regardless of study drug relationship [1]: 64.7% | haematologic AESIs suspected to be treatment-related [1]: 51% | nausea, any grade AE [1]: 24 n | patients with at least one AE leading to study drug discontinuation [1]: five | patients with at least one grade 4 AE [1]: 10 patients | patients with grade 3 AEs regardless of study drug relationship [1]: Twenty-five | patients with grade 3 AEs suspected to be study drug-related [1]: 11 patients | patients with grade 4 AEs regardless of study drug relationship [1]: 12 patients | thrombocytopenia AESI [1]: 43.1% | thrombocytopenia, any grade AE [1]: 22 n | vomiting, any grade AE [1]: 18 n | dose proportionality of AUClast and Cmax ([2]; 10–700 mg, single and repeated doses): no major deviation from dose proportionality | AUC(0-t) ([2]; 10 mg, 10 mg Reg.1, Cycle 1 Day 1, n 3, Tlast=24h): 1740 ng·h/mL | Cmax ([2]; 10 mg, 10 mg Reg.1, Cycle 1 Day 1, n 3): 162 ng/mL | AUC(0-t) ([2]; 10 mg, 10 mg Reg.1, Cycle 1 Day 8, n 3, Tlast=8h): 749 ng·h/mL | Cmax ([2]; 10 mg, 10 mg Reg.1, Cycle 1 Day 8, n 3): 135 ng/mL | AUC(0-t) ([2]; 10 mg, 10 mg Reg.1, Cycle 2 Day 1, n 3, Tlast=8h): 855 ng·h/mL | Cmax ([2]; 10 mg, 10 mg Reg.1, Cycle 2 Day 1, n 3): 151 ng/mL | AUC(0-t) ([2]; 20 mg, 20 mg Reg.1, Cycle 1 Day 1, n 4, Tlast=24h): 3640 ng·h/mL | Cmax ([2]; 20 mg, 20 mg Reg.1, Cycle 1 Day 1, n 4): 226 ng/mL | AUC(0-t) ([2]; 20 mg, 20 mg Reg.1, Cycle 1 Day 8, n 3, Tlast=8h): 1900 ng·h/mL | Cmax ([2]; 20 mg, 20 mg Reg.1, Cycle 1 Day 8, n 4): 292 ng/mL | AUC(0-t) ([2]; 20 mg, 20 mg Reg.1, Cycle 2 Day 1, n 2, Tlast=8h): 2470 ng·h/mL | Cmax ([2]; 20 mg, 20 mg Reg.1, Cycle 2 Day 1, n 2): 417 ng/mL | AUC(0-t) ([2]; 40 mg, 40 mg Reg.1, Cycle 1 Day 1, n 4, Tlast=24h): 8640 ng·h/mL | Cmax ([2]; 40 mg, 40 mg Reg.1, Cycle 1 Day 1, n 4): 648 ng/mL | AUC(0-t) ([2]; 40 mg, 40 mg Reg.1, Cycle 1 Day 8, n 1, Tlast=8h): 4560 ng·h/mL | Cmax ([2]; 40 mg, 40 mg Reg.1, Cycle 1 Day 8, n 2): 776 ng/mL | AUC(0-t) ([2]; 40 mg, 40 mg Reg.1, Cycle 2 Day 1, n 3, Tlast=8h): 4410 ng·h/mL | Cmax ([2]; 40 mg, 40 mg Reg.1, Cycle 2 Day 1, n 3): 780 ng/mL | AUC(0-t) ([2]; 80 mg, 80 mg Reg.1, Cycle 1 Day 1, n 4, Tlast=24h): 25800 ng·h/mL | Cmax ([2]; 80 mg, 80 mg Reg.1, Cycle 1 Day 1, n 4): 1700 ng/mL | AUC(0-t) ([2]; 80 mg, 80 mg Reg.1, Cycle 1 Day 8, n 4, Tlast=8h): 12600 ng·h/mL
